Patent US20260272888A1, “WOUND TREATMENT COMPOSITION” (OTSUKA PHARMACEUTICAL CO., LTD., priority 2022, published 2026)

Key:
human keratinocytes = settings: NPL 4; cited from earlier work
scratch model = settings: NPL 4; cited from earlier work
db/db mice = test: wound model using diabetic (db/db) mouse, circular defect wounds of the back skin; format: in vivo; settings: for healing promoting action as compared with the vehicle administration group (area of defect portions): ointment applied to defect wounds once daily for 10 days, compound A groups 1%, 2%, p<0.01 for compound A, N=6; for course of the area of the defect portions (start of healing): ointment once daily for 10 days, compound A 1%, 2% groups, crisaborole increase on second day in the 2% group, vehicle decreased from the fourth day
Description: The compound A or crisaborole was administered to db/db mice, which are spontaneously diabetic models, for 10 days, and the influence on wound healing was examined by analyzing the wound area.
Before start of the test, the db/db mice were grouped using the HbA1c blood concentration as an index, and shaved from the back to the abdomen. On the test start day, the back skin was punched using a biopsy punch (φ6 mm) under isoflurane anesthesia, and thus two circular defect wounds were prepared. The defect portions were photographed, and then an ointment preparation (vehicle [30% medium chain fatty acid triglyceride-containing white petrolatum], compound A or crisaborole) as a test substance was applied to the defect portions and covered with a dressing (Tegaderm, 3M). After the day following the preparation of the defect wounds, removal of the dressing, photographing of the defect portions (once every two days), administration of the test substance, and covering with a dressing were repeated (once daily for 10 days).

[1] = tested on: normal human corneal epithelial cell (HCEC-2); test: scratch assay of corneal epithelial cells with compound solution or conditioned medium from keratocytes; format: cell-based; settings: HCEC-2 scratch wound, conditioned medium from normal human keratocytes cultured 24 hours with compound, 20 hours culture
Description: The influence of the compound A on corneal epithelial cells via a keratocyte was evaluated. As the corneal epithelial cell and the keratocyte used in the evaluation system, a normal human corneal epithelial cell (HCEC-2, Kurabo Industries Ltd.) and a normal human keratocyte (EK, Cosmo Bio Co., Ltd.) were used.
Keratocytes (2×10^5 cells/mL) suspended in a fibroblast culture medium (Fibroblast Medium, Cosmo Bio Co., Ltd.) were seeded at 1 mL/well in a 12 well plate coated with poly-L-lysine, and cultured overnight. After removal of the culture medium and washing with normal human corneal epithelial cell basal medium (OcuLife BM, Kurabo Industries Ltd.), the compound solution was added. As the compound solution, a solution was used that was prepared by mixing dimethyl sulfoxide or the compound A dissolved in dimethyl sulfoxide with OcuLife BM (the final concentration of dimethyl sulfoxide was 0.1% [v/v]). After completion of the culture for 24 hours, the conditioned medium was collected.
Corneal epithelial cells (6×10^5 cells/mL) suspended in OcuLife BM were seeded at 100 μL/well in ImageLock 96-well Plate (Sartorius AG) coated with type I collagen, and cultured for 4 hours. Each well was scratched using a Wound Maker (trademark) tool (Sartorius AG) to prepare an initial scratch wound area in which no cells were present. […]

[2] = tested on: normal human epidermal keratinocyte (NHEK); test: scratch assay of epidermic cells with compound solution or conditioned medium from skin fibroblasts; format: cell-based; settings: conditioned medium from normal human dermal fibroblasts cultured 24 hours with compound, 18 hours culture
Description: The influence of the compound A on epidermic cells via a skin fibroblast was evaluated. As the epidermic cell and the skin fibroblast used in the evaluation system, a normal human epidermal keratinocyte (NHEK, Kurabo Industries Ltd.) and a normal human dermal fibroblast (NEDF, Kurabo Industries Ltd.) were used. As a reference compound, dexamethasone, which is an anti-inflammatory drug, was used.
Skin fibroblasts (1×10^5 cells/mL) suspended in Dulbecco's Modified Eagle Medium (DMEM) containing 10% (v/v) fetal bovine serum (FBS) were seeded at 1 mL/well in a 12 well plate coated with type I collagen, and cultured for 48 hours. After removal of the culture medium and washing with phosphate buffered saline (PBS), the compound solution was added. As the compound solution, a solution was used that was prepared by mixing dimethyl sulfoxide or a compound (the compound A or dexamethasone) dissolved in dimethyl sulfoxide with a normal human epidermal keratinocyte basal medium (HuMedia-KB2, Kurabo Industries Ltd.) (the final concentration of dimethyl sulfoxide was 0.1% [v/v]). After completion of the culture for 24 hours, the conditioned medium was collected.
Epidermic cells (6×10^5 cells/mL) suspended in HuMedia-KB2 were seeded at 100 μL/well in ImageLock 96-well Plate (Sartorius AG) coated with type I collagen, and cultured for 4 hours. […]

SD rat [3] = test: rat corneal epithelial defect (corneal wound) model; format: in vivo; settings: for wound area healing rate on Day 2: SD rat corneal epithelial defect, 1% ointment to the eye four times a day, n=5; for healing of the corneal defect wound as compared with the vehicle administration group: n=5, t-test (compound A p<0.05; crisaborole n.s.)
Excerpt: Using a male rat (SD rat), a corneal wound was induced as follows. On the day before the start of the test, rats were grouped using a stratified random sampling method based on the body weight. Under isoflurane anesthesia, each conventional rat was anesthetized with a Benoxil ophthalmic solution to the surface of the eye, and then a nonwoven fabric (3 mm in diameter) with 1-heptanol immersed was placed on the central portion of the cornea and allowed to stand for 30 seconds. Thereafter, the surface of the eye was washed with physiological saline, and the corneal epithelium was scratched with a cotton swab and thus carefully peeled to prepare a corneal defect. A 0.5% methylene blue solution was instilled into the eye, and the corneal epithelial defect portion was washed with physiological saline and then photographed, and then an ointment preparation (base alone, 1% compound A-containing ointment, or 1% crisaborole-containing ointment) as a test substance was administered to the eye four times a day (around 8:00, 11:00, 14:00, and 17:00) for three days. After the day following the preparation of the defect wound, photographing of the defect portion and administration of the test substance were repeated.

SD rat [4] = test: rat oral ulcer model induced by cauterization; format: in vivo; settings: for oral ulcer area on Day 8: 1 mass % ointment 0.05 mL twice a day for 5 days from Day 3, Mean±S.E., n=6, vehicle 20.4±2.3 mm^2; for reduction in the oral ulcer area as compared with the vehicle administration group: 1 mass % ointment twice a day for 5 days, Day 8, n=6, t-test (compound A p<0.05; crisaborole n.s.)
Excerpt: Using a male rat (SD rat), an oral ulcer was initiated by cauterization as follows. That is, conventional rats were anesthetized by isoflurane inhalation anesthesia and then placed on their back, and while the upper jaw and the lower jaw of each rat were opened using a rib retractor to take a view, a monopolar having a tip diameter of […] was applied to the central portion of the left oral mucosa, and the portion was cauterized in a circular shape (diameter: 3 to 4 mm) for about 10 to 20 seconds at a set output of 20 to induce an oral ulcer. After the cauterization, the rat was returned to a breeding cage and naturally awakened.
The day of oral ulcer induction was defined as the start day (Day 0). Two days after the oral ulcer induction (Day 2), the rats were grouped using a stratified random sampling method based on the body weight. From 3 days after the initiation of an oral ulcer by cauterization (Day 3), an ointment preparation containing 1 mass % of a test substance or an ointment base alone was orally administered at a dose of 0.05 mL twice a day (around 8:00 and 16:00) for 5 days. (As the compound A 1%, Moizerto (registered trademark) ointment 1% was used. The crisaborole 1% was prepared using a formula in which Moizerto (registered trademark) ointment 1% as the compound A was replaced by crisaborole.) Specifically, a rat anesthetized by isoflurane inhalation was laid down in a left side position, and the ointment preparation was administered to the left cheek where an ulcer was prepared in a state where the oral cavity was opened using tweezers or a rib retractor.

[5] = SD rat, 1% ointment four times a day

Row | Structure (SMILES) | growth of human keratinocytes (human keratinocytes) | re-epithelialization in a scratch model after treatment (scratch model) | healing promoting action as compared with the vehicle administration group (area of defect portions) (db/db mice) | course of the area of the defect portions (start of healing) (db/db mice) | migration of the corneal epithelial cells (wound confluence) [1] | migration of the epidermic cells (wound confluence) [2] | wound area healing rate on Day 2 (SD rat [3]) [%] | healing of the corneal defect wound as compared with the vehicle administration group (SD rat [3]; [5]) | time after preparation of the defect wound from which the defect portion area rapidly decreased (SD rat [3]; SD rat, 1% ointment four times a day, vehicle apparent healing started on Day 2) [h] | oral ulcer area on Day 8 (SD rat [4]) [mm^2] | reduction in the oral ulcer area as compared with the vehicle administration group (SD rat [4])
1 | CS(=O)(=O)Nc1ccc(C(=O)O[C@@H](Cc2c(Cl)c[n+]([O-])cc2Cl)c2ccc(OC(F)F)c(OCC3CC3)c2)cc1OCC1CC1 [CHF6001] | suppresses growth of human keratinocytes | re-epithelialization is decreased | – | – | – | – | – | – | – | – | –
2 | CCOc1ccccc1C(=O)NCc1coc(-c2ccc(OC(F)F)c(OC(C)C)c2)n1 [compound A, N-({2-[4-(difluoromethoxy)-3-(propan-2-yloxy)phenyl]-1,3-oxazol-4-yl}methyl)-2-ethoxybenzamide] | – | – | a healing promoting action was confirmed | rapidly decreased from the second day | promoted migration of the corneal epithelial cells via the keratocytes | promoted migration of the epidermic cells via the skin fibroblasts | 100 | a significant healing promoting action was confirmed | 8 | 13.1±1.3 | significant reduction in the oral ulcer area was observed
3 | N#Cc1ccc(Oc2ccc3c(c2)COB3O)cc1 [crisaborole, reference compound] | – | – | a significant healing promoting action was not observed | increased on the second day (in the 2% group) and then gradually decreased from the fourth day | – | – | 81.6 | healing was not completed | – | 18.3±2.7 | significant reduction in the oral ulcer area was not observed
